Entries after “also recorded” stand apart in the source; their conditions may differ.
Key:
[1] = tested on: freshly plated P2 mouse Schwann cells; assay: Cell death in freshly plated P2 mouse Schwann cells (propidium iodide, DAPI, SOX10); assay type: cell-based; settings: 100 μM vacor for 72 hours vs DMSO
Protocol: Freshly plated mouse Schwann cells were obtained from P2 sciatic and brachial nerves. Nerves were digested with trypsin and collagenase, centrifuged and plated on laminin/Poly-L-lysine coated glass coverslips in defined medium as previously described (Arthur-Farraj et al., 2011).
Sciatic and optic nerves were dissected from Wt and Sarm1 KO mice and directly embedded in O.C.T. compound, without fixing, and stored at −80° C. until ready for cryosectioning. Cryosections at 5 μm thick were collected onto SuperFrost plus slides. These slides were post-fixed in 4% paraformaldehyde (PFA) at room temperature for 10 mins followed by three washes of 5 mins each with 1×PBS. The slides were then immersed in 100% methanol at −20° C. for 10 mins, followed by three washes of 5 mins each with 1×PBS. The slides were then blocked in 5% horse serum (HS)/0.2% Triton x-100/PBS for 30 mins at room temperature. Primary antibodies were diluted in blocking solution and slides were incubated overnight at 4° C. The following day, the slides were washed once for 5 mins with 1×PBS, twice for 5 mins with 0.1% tween/PBS and finally once again for 5 mins with 1×PBS before adding secondary antibodies. The corresponding secondary antibodies were diluted at 1:500 along with DAPI at 1:2000 for 2 hrs at room temperature and kept in the dark. […]

[2] = tested on: neuronal cultures; settings: Loreto et al., 2021, Wu et al.; cited from earlier work
[3] = tested on: Rat oligodendrocytes; assay: Cell death / SOX10 positive cell survival in cultured rat oligodendrocytes; assay type: cell-based; settings: 100 μM vacor for 72 hours vs DMSO
Protocol: Sprague-Dawley neonatal (sp7) rat pups were decapitated following lethal overdose with pentobarbital. The brains were dissected and submerged into Hibernate-A low fluorescence media (Transnetyx Tissue, #HALF). The tissue was cut into 1-mm^3 pieces, washed in HBSS^−/− (Gibco, #11039047), then spun down at 100 g for 1 min at room temperature. To digest the tissue, the tissue was incubated in 34 U/mL papain (Worthington, #LS003127) and 40 μg/mL DNase I (Sigma, #D5025) in HALF, and incubated on an orbital shaker (55 rpm) for 40 min at 37° C. […] To collect the A2B5+ fraction, the MACS MS column (Miltenyi, #130-042-201) was removed from the magnetic stand (Miltenyi, #130-042-102) and cells were flushed from the column with 1 ml of prewarmed OPC medium (DMEM F/12 containing N-Acetyl cysteine (60 μg/ml, Sigma, #A9165), human recombinant insulin (10 ug/ml), sodium pyruvate (1 mM, Thermo Fisher, #11360-070), apo-transferrin (50 μg/ml, Sigma, #T2036), putrescine (16.1 μg/ml, Sigma, #P7505), sodium selenite (40 ng/ml, Sigma, #S5261), progesterone (60 ng/ml, Sigma, #P0130), bovine serum albumin (330 μg/ml, Sigma, #A4919). Cells were counted, then seeded at a density of 20,000 cells/cm^2 on poly-D-lysine (5 μg/ml PDL, Sigma #P6407) coated plates. […]

[4] = tested on: HEK293 cells; assay: Intracellular NAD+ in HEK293 cells (NAD-glo assay); assay type: cell-based, Human; settings: 100 μM vacor, 72 hours
Protocol: Schwann and HEK 293T cells were treated with 100 μM vacor, 250 μM 3AP, or vehicle controls, and collected in media at Oh and 72 h after treatment. Protein was extracted using Pierce™ IP Lysis Buffer supplemented with cOmplete™ Mini EDTA-free Protease Inhibitor Cocktail, and a BCA assay carried out to determine protein concentration. All samples were diluted to 0.5 μg/μL. The NAD-glo assay was performed according to manufacturer's instruction of the NAD^+/NADH-Glo™ assay by Promega (G9071). In short, 25 μL of sample were incubated with 12.5 μL 0.4M HCl at 60° C. for 15 min, before 12.5 μL 0.5M Tris base were added. 10 μL NAD^+ standards or sample were then mixed with 10 μL NAD-glo master mix (1 ml luciferin detection reagent, 5 μl reductase, 5 μl reductase substrate, 5 μl NAD^+ cycling enzyme, 25 μl NAD^+ cycling substrate) and incubated at RT for 40 min. Luminescence was read using a GloMax® Explorer microplate reader and NAD^+ concentrations determined relative to a NAD^+ standard curve.

O=C(NCc1cccnc1)Nc1ccc([N+](=O)[O-])cc1 [vacor, Vacor]
cell death judged by propidium iodide (P.I) and DAPI nuclear staining and SOX10 immunocytochemistry [1]: completely insensitive; also recorded: no cell death
effect of high dose on neuronal cultures [2]: axonal degeneration and cell death within hours
cell death judged by DAPI nuclear staining and SOX10 immunocytochemistry [3]: died within hours; also recorded: substantial cell death
Intracellular NAD+ levels [4]: decrease
